Publication PMC2361651 (British Journal of Cancer, 2005)

What was measured:
[1] = Plasma pharmacokinetics of SU5416 and metabolites in Phase I patients (HPLC UV); assay type: in vivo, human; details: plasma, patients
Experimental: Samples were taken prior to treatment infusion, 15 min into the infusion, at completion of the infusion and then at 5, 10, 20, 30, 45, 60, 120 and 240 min following the infusion. […] At the designated times, 4.0 ml of blood were collected into a lithium heparin tube, gently inverted and placed on ice to maintain the sample at 2–8°C. All samples were immediately centrifuged at 6000 r.p.m. at 4°C for 10 min, the supernatant divided between two 1.5 ml Nalgene cryovials and snap frozen in liquid nitrogen. Separated plasma samples were subsequently stored at −70°C until analysis.
Pharmacokinetic analysis was performed using a fully validated HPLC UV method ([Stopeck et al, 2002]). Plasma samples, standards (25–2000 ng ml^−1) and quality controls spiked with internal standards were extracted with acetonitrile. Following centrifugation, drying and reconstitution in 200 μl mobile phase, 20 μl were analysed by HPLC UV. Chromatography was carried out using a C18 analytical column, with a gradient mobile phase containing acetonitrile and 10 mM ammonium formate at pH 2.6. The flow rate was 0.8 ml min^−1 and the run-time 21 min. Detection was via UV absorption at a wavelength of 440 nm. The accuracy of the assay, reflected in relative error of measured concentration to theoretical (prepared) concentrations, was between 0.9 and 5.6% for all quality control samples.
Pharmacokinetic parameters were evaluated using WinNonLin Software®.

[2] = system: receptor tyrosine kinases inhibited by the parent compound; design: method as in Mendel et al, 2000; details: ref Mendel et al, 2000; cited from earlier work

Structure (SMILES): Cc1cc(CO)[nH]c1/C=C1\C(=O)Nc2ccccc21 [SU9838]
- distribution and clearance of metabolite [1]: large volume of distribution and rapid clearance
- metabolite as proportion of the total [1]: 5.2%
- inhibitory activity for the receptor tyrosine kinases inhibited by the parent compound [2]: Neither metabolite shows inhibitory activity
